Reference: patent publication US20260130933A1, “PHARMACEUTICAL COMPOSITION FOR PREVENTION OR TREATMENT OF NEPHROPATHY AND/OR DIABETES MELLITUS, COMPRISING ENAVOGLIFLOZIN” (DAEWOONG PHARMACEUTICAL CO., LTD., priority 2022, published 2026)

Experiment: Example 3: phase 3 trial, enavogliflozin 0.3 mg vs dapagliflozin 10 mg once a day for 24 weeks added to metformin and gemigliptin in patients with type 2 diabetes (same endpoints, rescue drug)
Format: in vivo, human
Experimental: 1) when Metformin (≥1,000 mg/Day) was Administered at a Constant Dose for at Least 8 Weeks Prior to Pre-Visit (Pre-Screening) • Metformin (≥1,000 mg/day) and gemigliptin (50 mg/day) were co-administered during the 8-week stabilization period. […] 4) when Metformin (≥1,000 mg/Day) and Gemigliptin (50 mg/Day) were Co-Administered at Constant Doses for at Least 8 Weeks Prior to Pre-Visit (Prescreening) • Without a separate stabilization period, Pre-visit (pre-screening) was Visit 1 (screening).
Subjects who met the inclusion/exclusion criteria continued to receive metformin and gemigliptin while receiving a placebo of the clinical trial drug in a single-blind (subject-blinded) state for a 2-week run-in period.
Here, the randomized subjects were stratified according to the administration therapy (co-administration with two or less agents (one or two agents) or three or more agents) of a conventional hypoglycemic agent (before washout of another hypoglycemic agent) within 24 weeks prior to obtaining written informed consent and by an HbA1c value (<8% or ≥8%) at Visit 1 (screening) measured in the central laboratory.
The randomized subjects were administered two tablets of the clinical trial drug corresponding to each administration group once a day, and then visited the institution at weeks 6, 12, 18, and 24 during the 24-week administration period to conduct efficacy and safety assessments. In addition, during the clinical trial period, they were instructed to exercise regularly and control their diet without changing their daily life patterns.
• 1) Change in HbA1c at week 24 after administration of clinical trial drug compared to Visit 2 (randomization)
• 1) Change in HbA1c at each time point of weeks 6, 12, and 18 after administration of clinical trial drug compared to Visit 2 (randomization) • 2) Change in FPG at each time point of weeks 6, 12, 18, and 24 after administration of clinical trial drug compared to Visit 2 (randomization) • 3) Proportion of subjects achieving HbA1c<7% at each time point of weeks 6, 12, 18, and 24 after administration of clinical trial drug • 4) Proportion of subjects achieving HbA1c<6.5% at each time point of weeks 6, 12, 18, and 24 after administration of clinical trial drug • 5) Proportion of subjects achieving therapeutic response (HbA1c change (HbA1c at Visit 2—HbA1c at each evaluation time point)>0.5% or HbA1c<7% at each evaluation time point compared to Visit 2 (randomization)) at each time point of weeks 6, 12, 18, and 24 after administration of clinical trial drug • 6) Proportion of subjects achieving therapeutic response (HbA1c change (HbA1c at Visit 2—HbA1c at each evaluation time point)>0.7% or HbA1c<7% at each evaluation time point compared to Visit 2 (randomization)) at each time point of weeks 6, 12, 18, and 24 after administration of clinical trial drug • 7) Proportion of subjects achieving therapeutic response (HbA1c change (HbA1c at Visit 2—HbA1c at each evaluation time point)>1% or HbA1c<7% at each evaluation time point compared to Visit 2 (randomization)) at each time point of weeks 6, 12, 18, and 24 after administration of clinical trial drug

[1] = week 12, per-protocol set, enavogliflozin 0.3 mg, dapagliflozin 10 mg
[2] = week 18, modified per-protocol set 1, enavogliflozin 0.3 mg, dapagliflozin 10 mg
[3] = week 18, modified per-protocol set 2
[4] = week 18, modified per-protocol set 2, enavogliflozin 0.3 mg, dapagliflozin 10 mg
[5] = week 18, per-protocol set, enavogliflozin 0.3 mg, dapagliflozin 10 mg

SMILES: CCOc1ccc(Cc2cc([C@@H]3O[C@H](CO)[C@@H](O)[C@H](O)[C@H]3O)ccc2Cl)cc1 [Dapagliflozin, reference compound]
- Subjects achieving HbA1c target of <7%, % [1]: 63.41%
- body weight, Median [1]: 63.20 kg
- Subjects achieving therapeutic glycemic response 1, % (week 12, per-protocol set, response 1 = HbA1c change >0.5% or HbA1c <7%, enavogliflozin 0.3 mg, dapagliflozin 10 mg): 89.43%
- Subjects achieving therapeutic glycemic response 2, % (week 12, per-protocol set, response 2 = HbA1c change >0.7% or HbA1c <7%, enavogliflozin 0.3 mg, dapagliflozin 10 mg): 82.11%
- Subjects achieving therapeutic glycemic response 3, % (week 12, per-protocol set, response 3 = HbA1c change >1% or HbA1c <7%, enavogliflozin 0.3 mg, dapagliflozin 10 mg): 73.98%
- FPG change from baseline, LS mean (SE) (week 18): −23.55(1.59) mg/dL
- HDL-C change from baseline, LS mean (SE) (week 18): 3.42(0.62) mg/dL
- HOMA-IR change from baseline, LS mean (SE) (week 18): −1.01(0.11)
- HOMA-β change from baseline, LS mean (SE) (week 18): 4.49(2.22)
- HbA1c change from baseline, LS mean (SE) (week 18): −0.75(0.04) % p
- LDL-C change from baseline, LS mean (SE) (week 18): 1.38(1.59) mg/dL
- UACR change from baseline, LS mean (SE) (week 18): −8.90(3.79) g/kg
- UGCR change from baseline, LS mean (SE) (week 18): 45.40(2.27) mg/mg
- adiponectin change from baseline, LS mean (SE) (week 18): 0.36(0.32) μg/mL
- body weight change from baseline, LS mean (SE) (week 18): −3.01(0.23) kg
- diastolic blood pressure change from baseline, LS mean (SE) (week 18): −2.42(0.68) mmHg
- fasting C-peptide change from baseline, LS mean (SE) (week 18): −0.06(0.02) ng/mL
- leptin change from baseline, LS mean (SE) (week 18): −1.06(0.51) ng/ml
- systolic blood pressure change from baseline, LS mean (SE) (week 18): −5.16(0.88) mmHg
- total cholesterol change from baseline, LS mean (SE) (week 18): 3.66(1.88) mg/dL
- triglyceride change from baseline, LS mean (SE) (week 18): −12.39(4.34) mg/dL
- Change from baseline in HDL-C, ANCOVA LS mean [2]: 3.42 mg/dL
- Change from baseline in HDL-C, Mean [2]: 3.57 mg/dL
- Change from baseline in HDL-C, Median [2]: 3.00 mg/dL
- Change from baseline in LDL-C, ANCOVA LS mean [2]: 1.38 mg/dL
- Change from baseline in LDL-C, Mean [2]: 0.93 mg/dL
- Change from baseline in LDL-C, Median [2]: 1.50 mg/dL
- Change from baseline in total cholesterol, ANCOVA LS mean [2]: 3.66 mg/dL
- Change from baseline in total cholesterol, Mean [2]: 2.51 mg/dL
- Change from baseline in total cholesterol, Median [2]: 1.00 mg/dL
- Change from baseline in triglycerides, ANCOVA LS mean [2]: -12.39 mg/dL
- Change from baseline in triglycerides, Mean [2]: -17.31 mg/dL
- Change from baseline in triglycerides, Median [2]: -8.50 mg/dL
- Fasting HDL-C, Mean [2]: 50.99 mg/dL
- Fasting HDL-C, Median [2]: 51.00 mg/dL
- Fasting LDL-C, Mean [2]: 78.33 mg/dL
- Fasting LDL-C, Median [2]: 73.00 mg/dL
- Fasting total cholesterol, Mean [2]: 146.31 mg/dL
- Fasting triglycerides, Mean [2]: 115.18 mg/dL
- Fasting triglycerides, Median [2]: 103.00 mg/dL
- fasting Total cholesterol, Median [2]: 141.00 mg/dL
- Change from baseline in diastolic blood pressure, ANCOVA LS mean [3]: −2.42 mmHg
- Change from baseline in diastolic blood pressure, Mean [3]: −2.12 mmHg
- Change from baseline in diastolic blood pressure, Median [3]: −2.00 mmHg
- Diastolic blood pressure, Mean [3]: 71.75 mmHg
- Diastolic blood pressure, Median [3]: 71.00 mmHg
- Change from baseline in systolic blood pressure, ANCOVA LS mean [4]: −5.16 mmHg
- Change from baseline in systolic blood pressure, Mean [4]: −4.63 mmHg
- Change from baseline in systolic blood pressure, Median [4]: −4.00 mmHg
- Systolic blood pressure, Mean [4]: 119.31 mmHg
- Systolic blood pressure, Median [4]: 118.00 mmHg
- Adiponectin, Mean (week 18, per-protocol set): 6.65 µg/mL
- Adiponectin, Median (week 18, per-protocol set): 6.21 µg/mL
- Change from baseline in HOMA-IR, ANCOVA LS mean (week 18, per-protocol set): −1.01
- Change from baseline in HOMA-IR, Mean (week 18, per-protocol set): −1.00
- Change from baseline in HOMA-IR, Median (week 18, per-protocol set): −0.75
- Change from baseline in HOMA-β, ANCOVA LS mean (week 18, per-protocol set): 4.49
- Change from baseline in HOMA-β, Mean (week 18, per-protocol set): 5.32
- Change from baseline in HOMA-β, Median (week 18, per-protocol set): 2.20
- Change from baseline in UACR, ANCOVA LS mean (week 18, per-protocol set): -8.90 g/kg
- Change from baseline in UACR, Mean (week 18, per-protocol set): -8.84 g/kg
- Change from baseline in UACR, Median (week 18, per-protocol set): 0.20 g/kg
- Change from baseline in UGCR, ANCOVA LS mean (week 18, per-protocol set): 45.40 mg/mg
- Change from baseline in UGCR, Mean (week 18, per-protocol set): 43.29 mg/mg
- Change from baseline in UGCR, Median (week 18, per-protocol set): 41.28 mg/mg
- Change from baseline in adiponectin, ANCOVA LS mean (week 18, per-protocol set): 0.36 µg/mL
- Change from baseline in adiponectin, Mean (week 18, per-protocol set): 0.30 µg/mL
- Change from baseline in adiponectin, Median (week 18, per-protocol set): 0.36 µg/mL
- Change from baseline in leptin, ANCOVA LS mean (week 18, per-protocol set): -1.06 ng/mL
- Change from baseline in leptin, Mean (week 18, per-protocol set): -1.36 ng/mL
- Change from baseline in leptin, Median (week 18, per-protocol set): -0.75 ng/mL
- HOMA-IR (insulin resistance), Mean (week 18, per-protocol set): 1.85
- HOMA-IR (insulin resistance), Median (week 18, per-protocol set): 1.53
- HOMA-β (beta-cell function), Mean (week 18, per-protocol set): 45.79
- HOMA-β (beta-cell function), Median (week 18, per-protocol set): 36.80
- Leptin, Mean (week 18, per-protocol set): 9.52 ng/mL
- Leptin, Median (week 18, per-protocol set): 7.80 ng/mL
- UACR, Mean (week 18, per-protocol set): 25.86 g/kg
- UACR, Median (week 18, per-protocol set): 10.20 g/kg
- UGCR, Mean (week 18, per-protocol set): 44.82 mg/mg
- UGCR, Median (week 18, per-protocol set): 42.32 mg/mg
- Body weight, Mean [5]: 64.37 kg
- Change from baseline in FPG, ANCOVA LS mean [5]: -23.55 mg/dL
- Change from baseline in FPG, Mean [5]: -24.80 mg/dL
- Change from baseline in FPG, Median [5]: -19.00 mg/dL
- Change from baseline in HbA1c, ANCOVA LS mean [5]: −0.75 % p
- Change from baseline in HbA1c, Mean [5]: −0.79 % p
- Change from baseline in HbA1c, Median [5]: −0.72 % p
- Change from baseline in body weight, ANCOVA LS mean [5]: -3.01 kg
- Change from baseline in body weight, Mean [5]: -2.84 kg
- Change from baseline in body weight, Median [5]: -2.70 kg
- Change from baseline in fasting C-peptide, ANCOVA LS mean [5]: -0.06 ng/mL
- Change from baseline in fasting C-peptide, Mean [5]: -0.06 ng/mL
- Change from baseline in fasting C-peptide, Median [5]: -0.07 ng/mL
- FPG, Mean [5]: 115.72 mg/dL
- FPG, Median [5]: 114.00 mg/dL
- Fasting C-peptide, Mean [5]: 0.63 ng/mL
- Fasting C-peptide, Median [5]: 0.60 ng/mL
- HbA1c, Mean [5]: 7.04%
- HbA1c, Median [5]: 6.97%
- Subjects achieving HbA1c target of <6.5%, (%) [5]: 12.20%
- Subjects achieving HbA1c target of <7%, % [5]: 56.10%
